Patent US20080200532A1 (Teva Pharmaceuticals USA, Inc. for Barbados, priority 2003, published 2008)

How the values were obtained:
[1] = according to the '340 patent; cited from earlier work
[2] = Stability study of Form XIV, polymorph content by X-Ray Powder Diffraction analysis; assay type: physicochemical
Source text: [table] Powder X-ray diffraction data were obtained using methods known in the art on a […] powder X-ray diffractometer model X'TRA equipped with a solid state detector. Copper radiation of 1.5418 Å was used. A round aluminum sample holder with zero background was used.

[3] = Stability studies, appearance after storage; assay type: physicochemical; conditions: storage at 40 EC for three months

Polymorph content by X-Ray Powder Diffraction analysis ([2]; 25° C., 60% RH, 1 M) | Polymorph content by X-Ray Powder Diffraction analysis ([2]; 25° C., 60% RH, 2 M) | Polymorph content by X-Ray Powder Diffraction analysis ([2]; 25° C., 60% RH, 3 M) | Polymorph content by X-Ray Powder Diffraction analysis ([2]; 40° C., 75% RH, 1 M) | Polymorph content by X-Ray Powder Diffraction analysis ([2]; 40° C., 75% RH, 2 M) | Polymorph content by X-Ray Powder Diffraction analysis ([2]; 40° C., 75% RH, 3 M) | Polymorph content by X-Ray Powder Diffraction analysis ([2]; 55° C., 1 M) | Polymorph content by X-Ray Powder Diffraction analysis ([2]; 55° C., 2 M) | Polymorph content by X-Ray Powder Diffraction analysis ([2]; 55° C., 3 M) | Transformation into Form B upon storage ([2]; storage at 25, 40 and 55° C., for at least 3 months) | Polymorph content by X-Ray Powder Diffraction analysis ([2]; t = 0) | Change of appearance (white to pale yellow powder) after storage [3] | SMILES | Hygroscopicity [1]
 |  |  |  |  |  |  |  |  |  |  |  | CC(C)n1c(/C=C/[C@@H](O)C[C@@H](O)CC(=O)O)c(-c2ccc(F)cc2)c2ccccc21 (racemic) [Form B, fluvastatin sodium] | low hygroscopicity
XIV | XIV | XIV | XIV | XIV | XIV | XIV | XIV | XIV | no more than 5% | XIV | does not change | CC(C)n1c(/C=C/[C@@H](O)C[C@@H](O)CC(=O)O)c(-c2ccc(F)cc2)c2ccccc21 (relative stereo) [Form XIV, [R*,S*-(E)]-(±)-7-[3-(4-fluorophenyl)-1-(1-methylethyl)-1H-indol-2-yl]-3,5-dihydroxy-6-heptenoic acid monosodium] | 
